Reference: PubChem BioAssay (NCI)
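Tested at 5 concentrations; 48 h exposure; 96-well plates; endpoints linearly interpolated, else capped at highest concentration. GI50 marks 50% less growth. The concentration for full growth arrest is given as TGI.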

Experiments:
Test in all cases: growth of human tumour cells (NCI), 48 h
[1] = tested on: A498 renal
[2] = tested on: ACHN renal
[3] = tested on: DU-145 prostate
[4] = tested on: HCT-15 colon
[5] = tested on: IGROV1 ovarian
[6] = tested on: KM12 colon
[7] = tested on: MALME-3M melanoma
[8] = tested on: NCI-H23 lung
[9] = tested on: OVCAR-3 ovarian
[10] = tested on: SF-268 CNS

| Compound | TGI [1] | TGI [2] | TGI [3] | TGI [4] | TGI [5] | TGI [6] | TGI [7] | TGI [8] | TGI [9] | TGI [10] | GI50 [5] | GI50 [6] | GI50 [10] |
| --- | --- | --- | --- | --- | --- | --- | --- | --- | --- | --- | --- | --- | --- |
| COc1ccc(NC(=S)NC(=O)c2ccc3c(c2)Sc2ccccc2O3)c([N+](=O)[O-])c1 | 38.2 µM | 64.8 µM | > 100 µM | > 100 µM | 59.1 µM | > 100 µM | 35.7 µM | > 100 µM | 58.5 µM | 45.7 µM | – | – | – |
| CC(=O)c1cnc2oc3ccc(O)cc3c2c1-c1ccccc1 | 88.6 µM | > 100 µM | > 100 µM | > 100 µM | 45 µM | > 100 µM | 81.2 µM | > 100 µM | 82.6 µM | > 100 µM | 5.04 µM | 40.8 µM | 27.7 µM |
| C[C@H]1SC(c2ccc(Cl)cc2Cl)N(NC(=O)c2ccncc2)C1=O (stereo partly drawn) | 78.4 µM | 90.7 µM | > 100 µM | > 100 µM | > 100 µM | > 100 µM | > 100 µM | > 100 µM | > 100 µM | 72.3 µM | – | – | – |
| COc1nc(C#CC(C)(C)C)nc(OC)n1 | > 100 µM | > 100 µM | 68.3 µM | 61.5 µM | > 100 µM | 40 µM | 46.9 µM | 68.5 µM | 77.3 µM | 78.6 µM | – | – | – |
| OCc1ccc2c(c1)CC1(Cc3ccc(/C=N/O)cc3C1)C2 (stereo not drawn) | 96.5 µM | > 80.6 µM | > 100 µM | > 45.1 µM | > 100 µM | 19.1 µM | > 78.8 µM | 56.3 µM | 17.1 µM | > 100 µM | – | – | – |
| COC(=O)c1cc(C#N)[nH]c1-c1cc(Br)cs1 | 18.4 µM | 61.9 µM | 43.1 µM | 33.2 µM | 35.3 µM | > 53.4 µM | 34.9 µM | 25.7 µM | 21.9 µM | 51 µM | – | – | – |
| NC(=O)N/N=C1\CC2C3CC4C2C4C13 (stereo not drawn) | > 100 µM | > 100 µM | > 100 µM | > 100 µM | > 100 µM | > 100 µM | > 100 µM | > 100 µM | > 100 µM | > 100 µM | – | – | – |
| O=C(C(Cl)=C(N1CCOCC1)N1CCOCC1)C(Cl)Cl | > 100 µM | > 100 µM | > 100 µM | > 100 µM | > 100 µM | > 100 µM | > 100 µM | > 100 µM | > 100 µM | > 100 µM | – | – | – |
| CC(C)(C)c1cc(C(=O)/C=C/c2ccc3c(c2)OCO3)cc(C(C)(C)C)c1O | > 56.4 µM | > 100 µM | > 58 µM | 33.9 µM | > 100 µM | 22.7 µM | > 53.4 µM | > 86.4 µM | 23 µM | > 41.6 µM | – | – | – |
| CCOC(=O)c1cn2c(n1)sc1cc(Cl)cc(Cl)c12 | > 100 µM | > 100 µM | > 100 µM | > 100 µM | > 100 µM | > 100 µM | > 100 µM | > 100 µM | > 100 µM | > 100 µM | – | – | – |
| CC(=O)O[C@H]1CCc2c(cc(N)c3c2C(=O)C[C@]2(C)C([C@H](C)CCCC(C)C)CCC32C)C1(C)C (stereo partly drawn) | > 100 µM | > 100 µM | > 100 µM | > 100 µM | > 100 µM | > 100 µM | > 100 µM | > 100 µM | > 100 µM | > 100 µM | – | – | – |
| Cn1c2ccccc2c(=O)c2c(O)cc3c(c21)C=CC1(CCCCC1)O3 | > 10 µM | > 10 µM | > 10 µM | > 10 µM | > 10 µM | > 10 µM | > 10 µM | > 10 µM | > 10 µM | > 10 µM | – | – | – |
